The target of assay [1] is Acetylcholinesterase (Electrophorus electricus) (UniProt O42275). The assay is described as follows: Inhibition of electric eel AChE using acetylthiocholine iodide as substrate at 10 uM preincubated for 5 mins followed by substrate addition and measured after 5 mins by DTNB reagent based Ellman's method relative to control. The conditions noted are these: time 10.0 min. (In general: In Ellman's method for cholinesterases, released thiocholine reacts with DTNB.)

Assay [2] has as its target Sodium- and chloride-dependent GABA transporter 1 (Mus musculus) (UniProt P31648). The assay is described as follows: Inhibition of NO 711 marker binding to mouse GAT1 assessed as residual activity at 100 uM by LC-ESI-MS/MS based competitive MS binding assay relative to control.
The target of a further assay is Beta-secretase 1 (Homo sapiens, UniProt P56817). The conditions noted are these: dose 50.0 µM, time 60.0 min.
In assay [3] the target is Cholinesterase (Equus caballus) (UniProt P81908). The assay is described as follows: Inhibition of equine serum BuChE using butyrylthiocholine iodide as substrate at 10 uM preincubated for 5 mins followed by substrate addition and measured after 5 mins by DTNB reagent based Ellman's method relative to control. The conditions noted are these: time 10.0 min.
Another assay addresses Cholinesterase (Equus caballus, UniProt P81908).
Assay [4] deals with Sodium- and chloride-dependent GABA transporter 1 (Mus musculus, UniProt P31648). The assay is described as follows: Inhibition of mouse GAT1 transfected in HEK293 cells assessed as reduction in [3H]-GABA uptake preincubated for 25 mins followed by [3H]-GABA addition and measured after 4 mins by liquid scintillation counting analysis. It counts as cell-based. The conditions noted are these: for IC50: read-out: pIC50 (converted).

The target in the next assay is T1, GABA transporter 2 (Mus musculus, UniProt P31651).
T1 sequence (P31651 whole entry): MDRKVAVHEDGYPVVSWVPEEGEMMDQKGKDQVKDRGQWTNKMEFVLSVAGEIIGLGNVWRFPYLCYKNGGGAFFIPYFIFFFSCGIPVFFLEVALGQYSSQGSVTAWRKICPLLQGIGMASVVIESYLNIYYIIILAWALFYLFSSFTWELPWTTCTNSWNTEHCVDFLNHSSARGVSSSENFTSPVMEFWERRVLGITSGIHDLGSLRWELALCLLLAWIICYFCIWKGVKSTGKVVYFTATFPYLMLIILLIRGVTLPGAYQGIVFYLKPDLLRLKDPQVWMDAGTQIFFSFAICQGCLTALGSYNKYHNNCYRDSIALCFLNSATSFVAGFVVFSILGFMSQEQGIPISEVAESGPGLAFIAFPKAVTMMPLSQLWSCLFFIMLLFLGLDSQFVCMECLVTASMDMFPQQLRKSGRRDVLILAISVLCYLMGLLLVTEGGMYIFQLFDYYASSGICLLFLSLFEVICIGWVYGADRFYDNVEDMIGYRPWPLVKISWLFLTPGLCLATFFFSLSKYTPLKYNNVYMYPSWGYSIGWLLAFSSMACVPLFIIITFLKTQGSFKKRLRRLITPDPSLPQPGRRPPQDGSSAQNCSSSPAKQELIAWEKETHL
The experiment in a line: Inhibition of mouse GAT2 transfected in HEK293 cells assessed as reduction in [3H]-GABA uptake preincubated for 25 mins followed by [3H]-GABA addition and measured after 10 mins by liquid scintillation counting analysis. Type of assay: cell-based. The conditions noted are these: read-out: pIC50 (converted).

Assay [5] in a line: Inhibition of mouse GAT3 transfected in HEK293 cells assessed as reduction in [3H]-GABA uptake preincubated for 25 mins followed by [3H]-GABA addition and measured after 4 mins by liquid scintillation counting analysis. It counts as cell-based. The following applies: for IC50: HEK293, read-out: pIC50 (converted); for pIC50: hek293.
A further assay has as its target T2, GABA transporter 4 (Mus musculus, UniProt P31650).
T2 sequence (P31650 whole entry): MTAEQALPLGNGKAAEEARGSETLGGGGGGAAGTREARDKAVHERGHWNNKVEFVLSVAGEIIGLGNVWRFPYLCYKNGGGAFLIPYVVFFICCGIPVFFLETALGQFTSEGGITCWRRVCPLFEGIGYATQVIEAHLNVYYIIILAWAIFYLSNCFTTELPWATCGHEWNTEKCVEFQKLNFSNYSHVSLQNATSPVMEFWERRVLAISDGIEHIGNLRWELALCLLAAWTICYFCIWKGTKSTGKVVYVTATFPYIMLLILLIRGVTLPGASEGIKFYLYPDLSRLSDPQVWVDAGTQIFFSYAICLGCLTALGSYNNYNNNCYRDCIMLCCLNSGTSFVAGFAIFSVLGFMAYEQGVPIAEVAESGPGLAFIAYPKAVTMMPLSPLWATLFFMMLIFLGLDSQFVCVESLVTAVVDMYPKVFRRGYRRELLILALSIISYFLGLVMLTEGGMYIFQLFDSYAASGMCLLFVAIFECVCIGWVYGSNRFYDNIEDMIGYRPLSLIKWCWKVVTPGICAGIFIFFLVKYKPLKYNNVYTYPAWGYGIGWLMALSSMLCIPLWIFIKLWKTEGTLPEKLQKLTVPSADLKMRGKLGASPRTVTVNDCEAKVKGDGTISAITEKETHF
The assay is described as follows: Inhibition of mouse GAT4 transfected in HEK293 cells assessed as reduction in [3H]-GABA uptake preincubated for 25 mins followed by [3H]-GABA addition and measured after 4 mins by liquid scintillation counting analysis. It counts as cell-based. The conditions noted are these: read-out: pIC50 (converted).

Bounds are passed on as bounds.

The source of these data is ChEMBL document CHEMBL5335794, “Discovery of novel multifunctional ligands targeting GABA transporters, butyrylcholinesterase, β-secretase, and amyloid β aggregation as potential treatment of Alzheimer's disease” (Eur J Med Chem, 2023).

Beta-secretase 1, sequence (P56817 whole entry): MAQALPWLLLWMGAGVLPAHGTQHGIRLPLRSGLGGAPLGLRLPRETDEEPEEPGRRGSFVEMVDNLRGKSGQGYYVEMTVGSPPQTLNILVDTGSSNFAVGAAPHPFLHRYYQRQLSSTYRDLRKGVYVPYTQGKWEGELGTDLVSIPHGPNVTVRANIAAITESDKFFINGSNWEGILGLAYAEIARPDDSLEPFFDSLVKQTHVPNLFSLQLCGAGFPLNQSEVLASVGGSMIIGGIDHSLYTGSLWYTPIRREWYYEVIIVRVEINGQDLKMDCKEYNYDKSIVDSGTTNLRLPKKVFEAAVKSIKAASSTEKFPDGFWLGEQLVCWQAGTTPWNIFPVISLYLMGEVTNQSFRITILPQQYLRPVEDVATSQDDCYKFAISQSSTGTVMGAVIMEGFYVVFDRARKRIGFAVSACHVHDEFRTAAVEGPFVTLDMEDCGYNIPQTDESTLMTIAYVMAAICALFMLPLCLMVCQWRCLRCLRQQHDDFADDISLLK
Acetylcholinesterase (Electrophorus electricus), sequence (O42275 24-633 limits assumed): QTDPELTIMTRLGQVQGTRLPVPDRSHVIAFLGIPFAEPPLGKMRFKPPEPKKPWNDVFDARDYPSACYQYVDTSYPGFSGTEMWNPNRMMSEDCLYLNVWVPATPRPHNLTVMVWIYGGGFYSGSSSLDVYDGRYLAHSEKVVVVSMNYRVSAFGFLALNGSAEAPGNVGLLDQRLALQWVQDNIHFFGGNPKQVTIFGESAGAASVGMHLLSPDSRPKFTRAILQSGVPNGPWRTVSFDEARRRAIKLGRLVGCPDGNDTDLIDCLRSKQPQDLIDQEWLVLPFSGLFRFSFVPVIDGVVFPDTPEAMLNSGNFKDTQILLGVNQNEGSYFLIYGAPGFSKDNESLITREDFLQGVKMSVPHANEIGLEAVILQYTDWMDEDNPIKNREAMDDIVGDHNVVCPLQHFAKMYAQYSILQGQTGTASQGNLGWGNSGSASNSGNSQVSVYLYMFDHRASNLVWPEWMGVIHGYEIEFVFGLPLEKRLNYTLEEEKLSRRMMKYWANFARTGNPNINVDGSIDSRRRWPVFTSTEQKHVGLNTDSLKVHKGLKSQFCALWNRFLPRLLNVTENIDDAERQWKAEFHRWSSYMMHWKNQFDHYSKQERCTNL
Cholinesterase (Equus caballus), sequence (P81908 whole entry): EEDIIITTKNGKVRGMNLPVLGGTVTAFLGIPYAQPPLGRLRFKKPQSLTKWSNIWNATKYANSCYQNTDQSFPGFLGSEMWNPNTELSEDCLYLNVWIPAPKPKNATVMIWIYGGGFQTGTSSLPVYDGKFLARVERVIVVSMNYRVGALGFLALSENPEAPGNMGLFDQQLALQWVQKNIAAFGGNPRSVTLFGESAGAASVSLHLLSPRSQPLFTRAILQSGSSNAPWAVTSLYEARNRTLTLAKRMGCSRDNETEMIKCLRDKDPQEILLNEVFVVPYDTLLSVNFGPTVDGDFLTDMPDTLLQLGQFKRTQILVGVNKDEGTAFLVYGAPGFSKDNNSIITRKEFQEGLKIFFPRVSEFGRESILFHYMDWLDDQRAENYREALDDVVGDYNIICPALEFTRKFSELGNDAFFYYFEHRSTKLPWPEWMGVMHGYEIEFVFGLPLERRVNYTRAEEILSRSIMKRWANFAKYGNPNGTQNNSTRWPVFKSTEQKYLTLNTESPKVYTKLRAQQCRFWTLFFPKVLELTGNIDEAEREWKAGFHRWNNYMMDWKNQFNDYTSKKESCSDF
Cholinesterase, sequence (P81908 whole entry): as above

The inhibition is how much of the control response was suppressed. High values mean strong suppression, low ones little suppression. As for `CC(O)CC(C(=O)NCc1ccccc1Cl)N(C)CC/C=C/c1ccccc1-c1ccccc1` (racemic; form 2) [listing 1 of 2 here], the inhibition in assay [1] is less than 10%; at Beta-secretase 1, 57%. Further, the Activity in assay [2] stood at 76%.

On to `CC(O)CC(C(=O)NCc1ccc(F)cc1)N(C)CC/C=C/c1ccccc1-c1ccccc1` (racemic; form 2) [listing 1 of 2 here], for which the inhibition in assay [1] was less than 10%; in assay [3], 62%; at Beta-secretase 1, 36%. The Activity in [2] is 87%.

For `CN(CCOCCN1c2ccccc2Sc2ccccc21)C(CCO)C(=O)NCc1ccccc1` (stereo not given), the IC50 at Cholinesterase was 4.34 µM; in assay [4] it was 35.5 µM; at GABA transporter 2 it was 12.9 µM; in assay [5], 8.51 µM; on GABA transporter 4 it was 21.4 µM. In addition, the results for the inhibition (in assay [1]; against Beta-secretase 1) were less than 10% and 48%, respectively. The Activity in assay [2] was 93%.

As to `CC(O)CC(C(=O)NCc1ccccc1)N(C)CC/C=C/c1ccccc1-c1ccccc1` (racemic; form 1) [listing 1 of 2 here], the inhibition is less than 10% in [1], 58% in [3] and 36% against Beta-secretase 1. The Activity in [2] is 75%.

As to `CN(CCOCCn1c2ccccc2c2ccccc21)C(CCO)C(=O)NCc1ccc(F)cc1` (stereo not given), the IC50 at Cholinesterase was 4.83 µM; in assay [4], 37.2 µM; on GABA transporter 2, 13.8 µM; in assay [5], 16.2 µM; on GABA transporter 4, 18.2 µM. The inhibition in assay [1] was less than 10%; against Beta-secretase 1, 65%. Moreover, the Activity in assay [2] came out at 112%.

The term pIC50 denotes the negative decadic logarithm of the IC50, by convention in mol/L. On to `CC(O)CC(C(=O)NCc1ccccc1Cl)N(C)CC/C=C/c1ccccc1-c1ccccc1` (racemic; form 2) [listing 2 of 2 here], for which the IC50 against Cholinesterase is 3.67 µM; in [4] it was 28.8 µM; on GABA transporter 2 it was 13.5 µM; on GABA transporter 4, 15.1 µM. Further, in assay [5], the pIC50 is given as 4.82.

In the case of `CC(O)CC(C(=O)NCc1ccccc1Cl)N(C)CC/C=C/c1ccccc1-c1ccccc1` (racemic; form 1) [listing 1 of 2 here], the inhibition in assay [1] was less than 10%; in [3], 64%; against Beta-secretase 1 it was 43%. Also, the Activity in assay [2] was found to be 75%.

In the case of `CN(CC/C=C/c1ccccc1-c1ccccc1)C(CO)C(=O)NCc1ccccc1Cl` (stereo not given), the IC50 was 2.27 µM against Cholinesterase; 16.2 µM in assay [4]; 11 µM on GABA transporter 2; 17 µM in assay [5]; 15.5 µM on GABA transporter 4. Besides, the figures for the inhibition (in [1]; at Beta-secretase 1) were less than 10% and 51%, respectively. Further, the Activity in [2] is 75%.

Take `CC(O)CC(C(=O)NCc1ccc(F)cc1)N(C)CC/C=C/c1ccccc1-c1ccccc1` (racemic; form 1) [listing 1 of 2 here]: the IC50 in assay [4] was 24.5 µM; on GABA transporter 2, 9.77 µM; in assay [5] it was 8.91 µM; on GABA transporter 4 it was 19.1 µM.

On to `CC(=O)NCCC(C(=O)NCc1ccc(C)cc1)N(C)CCOCCN1c2ccccc2Sc2ccccc21` (stereo not given), for which the IC50 is 3.2 µM against Cholinesterase; 22.9 µM in [4]; 14.1 µM on GABA transporter 2; 7.94 µM in assay [5]; 12.6 µM on GABA transporter 4. For the same compound, the results for the inhibition (in [1]; on Beta-secretase 1) were less than 10% and 52%, respectively. Moreover, the Activity in assay [2] is 89%.

Regarding `CC(O)CC(C(=O)NCc1ccccc1Cl)N(C)CC/C=C/c1ccccc1-c1ccccc1` (racemic; form 1) [listing 2 of 2 here], the IC50 in [4] was 33.9 µM; at GABA transporter 2, 15.5 µM; in [5], 13.8 µM; on GABA transporter 4, 38 µM.

`CC(O)CC(C(=O)NCc1ccccc1)N(C)CC/C=C/c1ccccc1-c1ccccc1` (racemic; form 1) [listing 2 of 2 here]: the IC50 in assay [4] was 37.2 µM; at GABA transporter 2, 18.2 µM; in assay [5], 25.1 µM; on GABA transporter 4, 50.1 µM.

`CC(=O)NCCC(C(=O)NCc1ccccc1Cl)N(C)CCOCCN1c2ccccc2Sc2ccccc21` (stereo not given): the IC50 was 2.79 µM against Cholinesterase; 14.1 µM in assay [4]; 20.4 µM at GABA transporter 2; 10.2 µM in [5]; 10.2 µM on GABA transporter 4. Moreover, the inhibition in [1] was less than 10%; on Beta-secretase 1, 35%. In addition, in assay [2], the Activity came to 86%.

For the compound `CC(=O)NCCC(C(=O)NCc1ccc(Cl)cc1)N(C)CCOCCN1c2ccccc2Sc2ccccc21` (stereo not given), the IC50 on Cholinesterase was 4.7 µM; in assay [4] it was 19.1 µM; at GABA transporter 2 it was 9.55 µM; in assay [5] it was 8.91 µM; at GABA transporter 4, 12.3 µM. For the same compound, the inhibition in assay [1] is less than 10%; against Beta-secretase 1 it was 41%. The Activity in assay [2] turned out to be 91%.

Turning to `CN(CCOCCN1c2ccccc2Sc2ccccc21)C(CCO)C(=O)NCc1ccccc1Cl` (stereo not given), the IC50 was 3.55 µM against Cholinesterase; 44.7 µM in assay [4]; 31.6 µM on GABA transporter 2; 26.3 µM in assay [5]; 29.5 µM on GABA transporter 4. For the same compound, the inhibition in assay [1] is less than 10%; at Beta-secretase 1 it was 35%. The Activity in [2] is 100%.

`CC(=O)NCCC(C(=O)NCc1ccc(C)cc1)N(C)CCC=C1c2ccccc2CCc2ccccc21` (stereo not given): the inhibition in assay [1] is less than 10%; in assay [3], 43%; on Beta-secretase 1, 36%.

As to `CN(CCC=C1c2ccccc2CCc2ccccc21)C(CO)C(=O)NCc1ccccc1Cl` (stereo not given), the values for the inhibition (in assay [1]; in [3]; against Beta-secretase 1) were less than 10%, 52% and 72%, respectively.

Consider `CC(O)CC(C(=O)NCc1ccc(F)cc1)N(C)CC/C=C/c1ccccc1-c1ccccc1` (racemic; form 1) [listing 2 of 2 here], for which the inhibition in assay [1] is less than 10%; in assay [3] it was 59%; at Beta-secretase 1 it was 39%. The Activity in assay [2] amounted to 86%.

As for `CN(CCC=C1c2ccccc2CCc2ccccc21)C(CCO)C(=O)NCc1ccc(Cl)cc1` (stereo not given), the results for the inhibition (in assay [1]; in assay [3]; at Beta-secretase 1) were less than 10%, 19% and 43%, respectively.

On to `CN(CCC=C1c2ccccc2C=Cc2ccccc21)C(CO)C(=O)NCc1ccc(Cl)cc1` (stereo not given), for which the inhibition turned out to be 11% in [1], 40% in assay [3] and 77% against Beta-secretase 1.

With `CC(=O)NCCC(C(=O)NCc1ccc(Cl)cc1)N(C)CCC=C1c2ccccc2CCc2ccccc21` (stereo not given), the inhibition in assay [1] is less than 10%; in assay [3] it was 24%; against Beta-secretase 1, 49%.

Consider `CC(O)CC(C(=O)NCc1ccc(F)cc1)N(C)CC/C=C/c1ccccc1-c1ccccc1` (racemic; form 2) [listing 2 of 2 here], for which the pIC50 in assay [4] (hek293) amounted to 4.61; in [5], 4.87. The figures for the IC50 on GABA transporter 2 and on GABA transporter 4 were 11.7 µM and 14.5 µM, respectively.

With `CN(CCC=C1c2ccccc2C=Cc2ccccc21)C(CCO)C(=O)NCc1ccccc1Cl` (stereo not given), the inhibition in assay [1] is less than 10%; in assay [3], 32%; at Beta-secretase 1 it was 48%.

In the case of `Cc1ccc(CNC(=O)C(CCO)N(C)CCC=C2c3ccccc3-c3ccccc32)cc1` (stereo not given), the inhibition is less than 10% in assay [1], 52% in assay [3] and 55% on Beta-secretase 1.

Take `Cc1ccc(CNC(=O)C(CO)N(C)CCC=C2c3ccccc3CCc3ccccc32)cc1` (stereo not given): the inhibition in assay [1] is less than 10%; in [3], 45%; against Beta-secretase 1, 59%.
